Assay results published in patent US4529602A, “Method for treatment or prophylaxis of gastro-intestinal disease” (priority 1981, dated 1985).
Counter-ions that a name gives are not always drawn. Each block holds one compound with its values, some of them ahead of it.

What was measured:
[1] = tested on: Shay rat ulcers; assay: Effect on Shay rat ulcers (pylorus-ligated); format: in vivo, Male SD-strain rats; details: 17 h
Experimental: Male SD-strain rats (6 to 7 weeks old) were starved for 48 hours and then the pylori were ligated. Immediately after ligation, a solution or suspension of a test compound in distilled water was administered orally into the stomachs in an amount of 0.2 ml per 100 g of body weight (Dose: 200 or 300 mg/kg). Seventeen hours after the administration of the test compound, the degree of ulceration in forestomach was examined according to the method of Takagi et al (Chem. Pharm. Bull., 11(10), pp. 1282-1290 (1963)) with a modified scoring system. Depending on the diameter of each lesions, the ulcers were classified into the following 4 grades. Ulcer index was calculated by the sum of the number of ulcers in each degree multiplied by respective ulcer score. Further, based on the ulcer index determined above, the preventive effect of the test compound on Shay rat ulcer was calculated by the following formula: [formula] (Results)

[2] = tested on: urinary electrolytes; assay: Effect on urine volume and urinary electrolytes (Experiment 7); format: in vivo, Male SD-strain rats; details: 50 mg/kg oral
Experimental: Male SD-strain rats (6 to 7 weeks old) were starved overnight, and a physiological saline solution (3 ml/100 g of body weight) was orally administered to the rats. One hour later, a solution or suspension of a test compound in a 0.25% CMC-physiological saline solution was administered orally to the rats in an amount of 3 ml per 100 g of body weight (Dose: 50 and 500 mg/kg). Immediately after administration of the test compound, the rats were placed into metabolic cages (2 rats per cage) and deprived of water and food for 5 hours. The urine samples which were excreted during a 5 hour period were collected. Sodium and potassium in the urine were estimated by a flame photometer (Hitachi Model-205).

[3] = tested on: urinary electrolytes; assay: Effect on urinary electrolytes (Experiment 8); format: in vivo, Male SD-strain rats; details: for Urine volume: 4 h, control 5.7 ± 0.6; for Na/K ratio: 4 h urine, control 6.1 ± 0.3
Experimental: Male SD-strain rats (6 to 7 weeks old, one group: 5-8 rats) were starved overnight, and a physiological saline solution (3 ml/100 g of body weight) was orally administered to the rats. One hour later, a solution of a test compound in a 0.25% CMC-physiological saline solution was administered orally to the rats in an amount of 3 ml per 100 g of body weight (Dose: 50, 500 or 1,000 mg/kg). Immediately after administration of the test compound, the rats were placed into metabolic cages (one rat per cage) and deprived of water and food for 4 hours. The urine samples which were excreted during a 4 hour period were collected. Sodium and potassium in the urine were estimated by a flame photometer (Hitachi Model-205).

[4] = tested on: experimentally-induced gastric ulceration; details: in words, known; cited from earlier work
[5] = tested on: human gastric ulcer; details: in words, numerous clinical trials; cited from earlier work
[6] = tested on: mineralo-corticoid- or aldosterone-like effect; details: in vivo; cited from earlier work
[7] = tested on: pepsin secretion; assay: Preventive effect on pepsin secretion in pylorus-ligated rats; format: in vivo, Male SD-strain rats; details: 100 mg/kg oral, 5 h after administration, hydrate
Experimental: (§1) Preventive effect on acid and pepsin secretions
(§2) Male SD-strain rats (6 to 7 weeks old) were starved for 48 hours, and then the pylori were ligated. Immediately after ligation, a solution or suspension of a test compound in distilled water was administered orally into the stomachs in an amount of 0.2 ml per 100 g of body weight (Dose: 100 mg/kg). Five hours after said administration of the test compound, the rats were sacrificed and the stomachs were removed. The gastric contents were centrifuged at 2,500 rpm for 10 minutes and the gastric juice was collected as the supernatant. The concentration of pepsin in the gastric juice was determined by Anson's method (c.f., J. Gen. Physiol., 22, pp. 77-89 (1938)) using hemoglobin as the substrate, and the preventive effect of the test compound on the pepsin secretion was estimated in terms of "decrease in pepsin concentration" according to the following formula: [formula]

[8] = tested on: gastric acid secretion; assay: Preventive effect on gastric acid secretion in pylorus-ligated rats; format: in vivo, Male SD-strain rats; details: 100 mg/kg oral, 5 h after administration, hydrate
Experimental: as §1, §2
On the other hand, the concentration of free acid in the gastric juice was determined by titrating said gastric juice to pH 7.0 with 0.1N NaOH, and the preventive effect of the test compound on the gastric acid secretion was estimated in terms of "the decrease in acidity of gastric juice" according to the following formula: [formula] (Results)

[9] = tested on: stress-induced ulcers; assay: Effect on stress-induced ulcers; format: in vivo, Male ddY-strain mice; details: 100 mg/kg oral, 16 h water immersion
Experimental: Male ddY-strain mice (4 weeks old) weighing about 20 g were starved for about 7 hours. A solution of a test compound in distilled water was administered orally to the mice in an amount of 0.1 ml per 10 g of body weight (Dose: 100 mg/kg). Immediately after administration of the test compound, the mice were placed in a stress cage and immersed to the level of the cervix in a water bath (24±0.5° C.) for 16 hours. Then, the stomach was removed and slightly inflated by injecting 1.2 ml of a 1% formalin solution to fix the inner layers of the gastric walls. The stomach was then incised along the greater carvature, and the number of ulcerations was examined.

[10] = tested on: aspirin-induced ulcers; assay: Effect on aspirin-induced ulcers; format: in vivo, Male Donryu-strain rats; details: p.o. 2 m mol./kg (847 mg/kg); aspirin 200 mg/kg
Experimental: Male Donryu-strain rats (8 to 9 weeks old) were starved overnight, and a solution or suspension of a test compound in distilled water was administered orally into the stomachs in an amount of one ml per 100 g of body weight. Half an hour later, a suspension of aspirin in 0.25% CMC solution was administered orally to the rats in an amount of 0.5 ml per 100 g of body weight (Dose: 200 mg/kg). Four hours after the administration of aspirin, the rats were sacrificed and the stomachs were removed and inflated by injecting 10 ml of 1% formalin solution to fix the inner layers of the gastric walls. The stomach was then incised along the greater curvature and the lengths of the lesions were measured and summated to give ulcer index (in mm) for each animal. The preventive effect of the test compound on aspirin-induced ulcers were calculated by the following formula: [formula] (Results)

[11] = tested on: gastric mucus secretion; assay: Effect on gastric mucus secretion (alcian blue binding); format: in vivo, Male Sprague-Dawley rats; details: 100 mg/kg oral, 1 h, hydrate
Experimental: Stimulating effect of a test compound on gastric mucus secretion was examined by the method of Corne et al. (J. Physiol., 242, pp. 116-117(1974); J. Pharm. Pharmacol., 33, pp. 348-352(1981)). Male Sprague-Dawley rats (6-7 weeks old; one group: 6 rats) were fasted for 20 hours before the experiments. Water was given ad libitum and coprophagy was prevented by using cages with wide-mesh floors. A test compound dissolved or suspended in distilled water was administered orally to the rats at a dose of 100 mg/kg. One hour after the administration of the test compound, the stomachs were dissected, opened along the greater curvature, rinsed in ice-cold 0.25M sucrose, and the rumen was discarded. Then, the stomachs were incubated in 10 ml of a 0.15M sucrose-0.05M sodium acetate solution (pH 5.8) containing alcian blue (1 mg/ml), at room temperature for 1.5 hours. Finally, the stomachs were placed in 15 ml of a 0.5M magnesium chloride solution for 2 hours with occasional shaking and then removed, and the magnesium chloride solution was shaken briefly with 10 ml of diethyl ether. The optical density of the aqueous layer was read at 605 nm, and the degree of alcian blue binding was expressed as μg alcian blue/g of tissue. The stimulating effect of the test compound on gastric mucus secretion was estimated in terms of "the increase in alcian blue binding" which was calculated by the following formula: [formula] (Results)

[12] = tested on: gastric mucous membrane; assay: Protective effect on gastric mucous membrane (excised stomach in artificial gastric juice); parameters: species or system Male Sprague-Dawley rats; details: 37° C., 60 min, hydrate; for Amount of tyrosine: control 2.42 ± 0.15
Experimental: Protective effect of a test compound on gastric mucous membrane was examined by the method of Diago et al. (Yakugaku Zasshi, 101, 452-457(1981)). Male Sprague-Dawley rats (6-7 weeks old; one group: 5 rats) were fasted for 20 hours before the experiments. Water was given ad libitum and coprophagy was prevented by using cages with wide-mesh floors. The stomach was excised, opened along the greater curvature, rinsed in physiological saline solution, and the rumen was discarded. The stomach was incubated in 10 ml of an artificial gastric juice (100 mM HCl, 0.3% pepsin, 0.2% NaCl) containing a test compound, at 37° C. for 60 minutes. After the incubation, 2 ml of 7% trichloroacetic acid were added to 0.5 ml of medium, and the mixture was centrifuged. The amount of tyrosine in the supernatant was measured by using Folin-Ciocelteu reagent (J. gen. Physiol., 16, 59-63(1932)), and expressed as mg tyrosine/g tissue. The protective effect of the test compound on gastric mucous membrane was estimated in terms of "the inhibition of digestion of mucous membrane" which was calculated by the following formula: [formula] (Results)

[13] = tested on: rats; assay: Acute oral toxicity in rats (Experiment 10); format: in vivo; details: male SD-strain rats, 7 days, hydrate, 10080 min
Experimental: After male SD-strain rats (6-7 weeks old) were starved for 20 hours, a solution or suspension of a test compound in distilled water was administered orally to the rats in an amount of one ml per 100 g of body weight. After administration of the test compound, the rats were allowed free access to water and food.

[14] = 1 mg/ml in artificial gastric juice
[15] = 4 mg/ml in artificial gastric juice

Urine volume ([2]; 5 h, 2 rats per cage, control 12.3): 9.3 mL | Na/K ([2]; 5 h urine, control 5.8): 3.2 | Urine volume ([3]; 50 mg/kg p.o.): 5.2 ± 0.3 mL | Na/K ratio ([3]; 50 mg/kg p.o., * = significantly different (p < 0.01) from control): 3.7 ± 0.3
Structure (SMILES): CC1(C)[C@@H](OC(=O)CCC(=O)O)CC[C@]2(C)[C@H]3C(=O)C=C4[C@@H]5C[C@@](C)(C(=O)O)CC[C@]5(C)CC[C@@]4(C)[C@]3(C)CC[C@@H]12 [Carbenoxolone disodium salt, 3-β-hydroxy-11-oxoolean-12-en-30-oic acid hydrogen succinate, reference compound]
Preventive effect on Shay rat ulcers ([1]; 300 mg/kg oral): 40% | protection from experimentally-induced gastric ulceration [4]: known to protect animals from experimentally-induced gastric ulceration | gastric anti-ulcer effect in human gastric ulcer patients [5]: effective gastric anti-ulcer agent | aldosterone-like side effect [6]: has an aldosterone-like side effect

Structure (SMILES): CC(C)c1cc2c(cc1S(=O)(=O)O)[C@@]1(C)CCC[C@@](C)(C(=O)O)[C@@H]1CC2 [Sulfodehydroabietic acid disodium salt, 1,4a-dimethyl-1-carboxy-6-sulfo-7-isopropyl-1,2,3,4,4a,9,10,10a-octahydro-phenanthrene disodium salt 81/2 hydrate]
Decrease (%) in pepsin concentration [7]: 92% | Decrease (%) in acidity of gastric juice [8]: 54% | Preventive effect on Shay rat ulcers ([1]; 200 mg/kg oral, hydrate): 93% | decrease in the number of stress-induced ulcers [9]: 22% | Preventive effect on aspirin-induced ulcers [10]: 82% | Alcian blue binding ([11]; control (water) 198.5 ± 6.4): 247.7 ± 18.4 μg/g tissue | Increase (%) in alcian blue binding [11]: 25% | Amount of tyrosine [12, 14]: 1.64 ± 0.12 mg/g tissue | Inhibition (%) of digestion of mucous membrane [12, 14]: 32% | Amount of tyrosine [12, 15]: 0.82 ± 0.07 mg/g tissue | Inhibition (%) of digestion of mucous membrane [12, 15]: 66% | Urine volume ([3]; 500 mg/kg p.o.): 4.8 ± 0.4 mL | Na/K ratio ([3]; 500 mg/kg p.o.): 7.4 ± 1.0 | Urine volume ([3]; 1000 mg/kg p.o.): 4.3 ± 0.3 mL | Na/K ratio ([3]; 1000 mg/kg p.o.): 5.9 ± 0.4 | LD50 [13]: > 2000 mg/kg
